# Reference: US20230049619A1, “SIGMA-1 RECEPTOR LIGANDS AND USES THEREOF” (UNIVERSITE DE STRASBOURG, priority 2019, published 2023)
# Tests used:
# sigma-1 receptor = biological target: T1, sigma-1 receptor (Homo sapiens, UniProt Q99720); assay: sigma-1 receptor binding assay ([3H](+)-pentazocine displacement, Jurkat cell membranes); conditions: [3H](+)-pentazocine 15 nM, 37° C., 2 hours
# T1 construct: incubing Jurkat cell membranes ([…] protein per tube) with [^3H](+)-pentazocine; endogenous in cells; host or cells: Jurkat cell membranes
# Method: The sigma-1 receptor binding assays were performed according to Ganapathy et al. (J Pharmacol Exp Ther 28:251-60, 1999). The sigma-1 receptor binding assay was carried out by incubing Jurkat cell membranes ([…] protein per tube) with [^3H](+)-pentazocine a selective sigma-1 radiotracer (15 nM) and a range of concentration of tested compounds, at 37° C. for 2 hours in 5 mM tris/HCl buffer (pH=7.4). The inhibition of [^3H](+)-pentazocine binding assay is mainly used to determine the inhibition constant (Ki) of potential sigma-1 receptor ligands. These assays are performed with a single concentration of [^3H](+)-pentazocine at a concentration near its KD and increasing concentrations of non-radioactive ligands.
# T1 sequence (Q99720 whole entry): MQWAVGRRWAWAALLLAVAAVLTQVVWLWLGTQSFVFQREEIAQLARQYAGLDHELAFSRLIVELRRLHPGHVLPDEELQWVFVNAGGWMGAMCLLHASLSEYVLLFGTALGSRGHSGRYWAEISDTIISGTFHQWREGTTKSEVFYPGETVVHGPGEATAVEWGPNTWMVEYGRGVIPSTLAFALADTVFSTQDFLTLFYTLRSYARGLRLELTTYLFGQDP
compound,measurement,setting,value
"Cl.O=c1c(-c2ccccc2)cncn1C1CCN(Cc2ccccc2)CC1 [cpd 43, 3-(1-benzylpiperidin-4-yl)-5-phenylpyrimidin-4(3H)-one hydrochloride]",inhibition at 0.01 µM,sigma-1 receptor; tested compound 10 nM,86%
same,inhibition at 0.1 µM,sigma-1 receptor; tested compound 100 nM,90%
same,melting point,,144 °C
